Measurements reported in EP0934940A1, “CYTOKINE PRODUCTION INHIBITORS, TRIAZEPINE COMPOUNDS, AND INTERMEDIATES THEREOF” (Japan Tobacco Inc., priority 1996, dated 1997).
Where a name gives a salt, the structure may show the parent alone. Read-outs that look alike come from different tables or passages of the source. One block for each compound: values may come before it.

Tests used:
[1] = test system: TNF-α; assay: Inhibitory activity on TNF-α production from LPS-stimulated human PBMC (ELISA); type: cell-based
Experimental: (§1) Inhibitory activity on cytokine production from human PBMC (peripheral blood mononuclear cell)
(§2) PBMC fractions were isolated from human blood using a mono-poly resolving medium. The cells (PBMC) were cultured in 5% FCS (fetal calf serum)/RPMI1640 medium. Thereafter, the test compound was added to the final concentration of 0.001-10 µM, and LPS (lipopolysaccharide) was added to the final concentration of 10 µg/ml. After incubatioin for 24 hours, the supernatant was separated and freeze stocked at -80°C.
(§3) On the day of experiment, the supernatant was thawed and the production amount of cytokine was measured by ELISA. IL-6 was assayed using [(h)IL-6] human, ELISA system (Amersham); TNF-α was assayed using [(h)TNF-α] human, ELISA system (Amersham); GM-CSF was assayed using human GM-CSF immunoassay (R&D systems); and IL-8 was assayed using human IL-8 immunoassay (R&D systems). The determination method followed the method of each kit. The results are expressed in IC50.

[2] = test system: IL-6; assay: Inhibitory activity on in vivo IL-6 production by LPS stimulation; conditions: male ICR mice, LPS stimulation i.v., test compound 10 mg/kg p.o. at the same time, blood two hours later, relative to 0.5% CMC-Na group; for inhibition in vivo at 10 mg/kg: Mus musculus, po, 2 h, read-out: Inhibtion (%) of plasma IL-6 production (10 mg/kg, p.o.)
Experimental: Inhibitory activity on in vivo IL-6 production by LPS stimulation
LFS (0.3 mg/kg) was intravenously administered to male ICR mice (6-week-old) fasted for 24 hours. At the same time, the test compound suspended in 0.5% CMC-Na ( carboxymethylcellulose sodium) was orally administered at the dose of 10 mg/kg.
Two hours later, blood was taken from eyegrounds. The blood was centrifuged, and the plasma fraction was diluted and quantitatively assayed for IL-6 in blood by ELISA (Endogen EM-IL6). The inhibitory percentage of the group administered with the test compound was expressed relative to the amount of IL-6 in blood of the cup administered with 0.5% CMC-Na.

[3] = test system: IL-6; assay: Inhibitory activity on IL-6 production from LPS-stimulated human PBMC (ELISA); type: cell-based; conditions: 24 h
Experimental: as §1, §2, §3

[4] = test system: IL-8; assay: Inhibitory activity on IL-8 production from LPS-stimulated human PBMC (immunoassay); type: cell-based; conditions: 24 h, read-out: IL-8 IC50 (µM)
Experimental: as §1, §2, §3

[5] = test system: GM-CSF; assay: Inhibitory activity on GM-CSF production from LPS-stimulated human PBMC (immunoassay); type: cell-based; conditions: 24 h, read-out: GM-CSF IC50 (µM)
Experimental: as §1, §2, §3

[6] = test system: TNF-α; assay: Inhibitory activity on in vivo TNF-α production by LPS stimulation; conditions: male ICR mice, 30 mg/kg p.o. 30 minutes before LPS 0.3 mg/kg i.v., blood one hour after LPS, relative to 0.5% CMC-Na group
Experimental: Inhibitory activity on in vivo TNF-α production by LPS stimulation
The test compound suspended in 0.5% CMC-Na (carboxymethylcellulose sodium) was orally administered at the dose of 30 mg/kg to male ICR mice (6-week-old) fasted for 24 hours. At 30 minutes after oral administration, LPS was intravenously administered at the dose of 0.3 mg/kg. At one hour after LSP administration, blood was taken from the heart. The TNF-α in plasma was assayed by ELISA (Genzyme). The suppression of TNF-α production of the group administered with test compounds was calculated by the following formula. Inhibition (%) =[1-(test compound administered group)/(0.5% CMC-Na administered group)]× 100 [formula]

[7] = test system: IL-2; assay: Inhibitory activity on IL-2 production in concanavalin A-stimulated spleen cells; type: cell-based, Balb/c mice; conditions: Balb/c mouse spleen cells, 5 µg/ml concanavalin A, 24 hours, EIA
Experimental: (§4) Inhibitory activity on IL-2 and IFNγ production
(§5) The spleen cells obtained from 9-week-old Balb/c mice (Charles River Japan, Inc.) was suspended in RPMI-1640 medium supplemented with 10% FCS, at 4 × 10^6 cells/ml. The suspended cells were incubated in a 96 well plate (0.25 ml per well) in the presence of 5 µg/ml concanavalin A. The cells were cultured with or without addition of various concentrations of test compounds. After 24 hours' incubation, the culture broth was taken for assay of cytokine and preserved at -80°C. The concentrations of IL-2 and IFNγ in the culture broth were measured using an EIA kit (perSeptive Diagnostic) according to the attached protocol. The results are expressed in IC50.

[8] = test system: IFNγ; assay: Inhibitory activity on IFNγ production in concanavalin A-stimulated spleen cells; type: cell-based, Balb/c mice; conditions: Balb/c mouse spleen cells, 5 µg/ml concanavalin A, 24 hours, EIA
Experimental: as §4, §5

[9] = test system: Adjuvant arthritis (AIA); assay: Effects on rat adjuvant arthritis (hind limb edema); type: in vivo; conditions: Lewis rats, 10 mg/kg p.o. once a day for 28 days from day 0, hind limb edema at day 28, mean±standard error, **p < 0.01
Experimental: Effects on rat adjuvant arthritis
Lewis rats (5-week-old, Charles River Japan, Inc.) were used for the test. Adjuvant arthritis (AIA) was induced by injection (0.5 mg) of Mycobacterium butyricum (Difco) suspended in paraffin oil, from the root of the tail at day 0. The volume of the hind limb was measured with time after the injection of adjuvant. The test compound was suspended in 0.5% HPMC (hydroxypropylmethycellulose) and orally administered at the dose of 10 mg/kg once a day for 28 days from day 0. The suppression of edema of hind limb at day 28 was calculated as follows. Suppression (%) = 100 ×((AIA treated group-AIA control group))/((normal control group-AIA control group)) [formula]
The results are shown in mean±standard error and tested by Student-test. The result was significant when p value was less than 0.05.

[10] = Homo sapiens, PBMC, 24 h, human PBMC, LPS 10 µg/ml, incubation 24 hours, supernatant ELISA, read-out: TNF-α IC50
[11] = human PBMC, LPS 10 µg/ml, incubation 24 hours, supernatant ELISA, read-out: IL-6 IC50

IC50 [1, 10]: 0.1 µM
IC50 ([1]; human PBMC, LPS 10 µg/ml, incubation 24 hours, supernatant ELISA, read-out: TNF-α IC50): 0.13 µM
Structure (SMILES): Cc1nnc2n1-c1ccccc1C(c1ccc(Cl)cc1)=NN2Cc1ccc[n+]([O-])c1 [Example 1, 3-[6-(4-Chlorophenyl)-1-methyl-4H-2,3,4,5,10b-pentaazabenz[e]azulen-4-ylmethyl]pyridine-1-oxide]
inhibition in vivo at 10 mg/kg [2]: 73%

IC50 [3, 11]: < 0.001 µM
IC50 [1, 10]: 0.001 µM
Structure (SMILES): Cc1nnc2n1-c1ccccc1C(c1ccc(N)cc1)=NN2Cc1ccc([N+](=O)[O-])cc1 [Synthetic Example 193, 4-[1-Methyl-4-(4-nitrobenzyl)-4H-2,3,4,5,10b-pentaazabenz[e]azulen-6-yl]phenylamine hydrochloride]
inhibition in vivo at 10 mg/kg [2]: 67%

Structure (SMILES): Cc1cc2c(s1)-n1c(C)nnc1N(Cc1ccc(C#N)cc1)N=C2c1ccccc1 [Synthetic Example 122, 6-(4-Cyanobenzyl)-2,9-dimethyl-4-phenyl-6H-5,6,7,8,9a-pentaazathieno[2,3-e]azulene]
inhibition in vivo at 10 mg/kg [2]: 71%

IC50 [3, 11]: 0.001 µM
IC50 [1, 10]: 0.001 µM
Structure (SMILES): Cc1nnc2n1-c1ccccc1C(c1ccc(N)cc1)=NN2Cc1ccc(Cl)cc1 [Synthetic Example 191, 4-[4-(4-Chlorobenzyl)-1-methyl-4H-2,3,4,5,10b-pentaazabenz[e]azulen-6-yl]phenylamine hydrochloride]
inhibition in vivo at 10 mg/kg [2]: 62%

Structure (SMILES): Cc1ccc2c(c1)-n1c(C)nnc1N(Cc1ccc(C#N)cc1)N=C2c1ccc(Cl)cc1 [Synthetic Example 108, 6-(4-Chlorophenyl)-4-(4-cyanbenzyl)-1,9-dimethyl-4H-2,3,4,5,10b-pentaazabenz[e]azulene]
Inhibtion (%) of plasma IL-6 production (10 mg/kg, p.o.) [2]: 70%

Structure (SMILES): Cc1sc2c(c1C)C(c1ccc(Cl)cc1)=NN(Cc1ccc(C#N)cc1)c1nnc(C)n1-2 [Synthetic Example 115, 4-(4-Chlorophenyl)-6-(4-cyanobenzyl)-2,3,9-trimethyl-6H-5,6,7,8,9a-pentaazathieno[2,3-e]azulene]
inhibition in vivo at 10 mg/kg [2]: 75%

Structure (SMILES): Cc1nnc2n1-c1ccccc1C(c1ccccc1)=NN2Cc1ccc(C#N)cc1 [Synthetic Example 111, 4-(4-Cyanobenzyl)-1-methyl-6-phenyl-4H-2,3,4,5,10b-pentaazabenz[e]azulene]
inhibition in vivo at 10 mg/kg [2]: 62%

Structure (SMILES): Cc1ccc(CN2N=C(c3ccc(Cl)cc3)c3ccccc3-n3c(C)nnc32)cc1 [Synthetic Example 54, 6-(4-Chlorophenyl)-1-methyl-4-(4-methylbenzyl)-4H-2,3,4,5,10b-pentaazabenz[e]azulene]
inhibition in vivo at 10 mg/kg [2]: 56%

IC50 [4]: 0.26 µM
IC50 [5]: 0.05 µM
IC50 [7]: 240 nM
IC50 [8]: 120 nM
Structure (SMILES): Cc1nnc2n1-c1ccccc1C(c1ccc(Cl)cc1)=NN2Cc1cccnc1 [compound 19]
Inhibition (%) of plasma TNF-α production (30 mg/kg, p.o.) [6]: 51%
Suppression (%) of edema [9]: 72.7±3.3** %

IC50 [3, 11]: 0.03 µM
IC50 [1, 10]: 0.02 µM
Structure (SMILES): Cc1nnc2n1-c1ccccc1C(c1ccc(N)cc1)=NN2Cc1ccc(C#N)cc1 [Synthetic Example 192, 4-[4-(4-Cyanobenzyl)-1-methyl-4H-2,3,4,5,10b-pentaazabenz[e]azulen-6-yl]phenylamine hydrochloride]
inhibition in vivo at 10 mg/kg [2]: 67%

Structure (SMILES): CCc1cc2c(s1)-n1c(C)nnc1N(Cc1ccncc1)N=C2c1ccc(Cl)cc1 [Synthetic Example 118, 4-(4-Chlorophenyl)-2-ethyl-9-methyl-6-(pyridin-4-ylmethyl)-6H-5,6,7,8,9a-pentaazathieno[2,3-e]azulene]
inhibition in vivo at 10 mg/kg [2]: 75%

Structure (SMILES): Cc1nnc2n1-c1ccccc1C(c1ccccc1)=NN2Cc1ccncc1 [Synthetic Example 95, 1-Methyl-6-phenyl-4-(pyridin-4-ylmethyl)-4H-2,3,4,5,10b-pentaazabenz[e]azulene]
inhibition in vivo at 10 mg/kg [2]: 78%

Structure (SMILES): Cc1ccc2c(c1)-n1c(C)nnc1N(Cc1ccncc1)N=C2c1ccccc1 [Synthetic Example 97, 1,9-Dimethyl-6-phenyl-4-(pyridin-4-ylmethyl)-4H-2,3,4,5,10b-pentaazabenz[e]azulene]
inhibition in vivo at 10 mg/kg [2]: 98%

IC50 ([3]; read-out: IL-6 IC50 (µM), human PBMC, LPS 10 µg/ml, incubation 24 hours, supernatant ELISA): 0.3 µM
IC50 ([1]; Homo sapiens, PBMC, 24 h, read-out: TNF-α IC50 (µM), human PBMC, LPS 10 µg/ml, incubation 24 hours, supernatant ELISA): 0.06 µM
Structure (SMILES): Cc1cc2c(s1)-n1c(C)nnc1N(Cc1ccc(-c3nnnn3C)cc1)N=C2c1ccccc1 [Example 16]
Inhibtion (%) of plasma IL-6 production (10 mg/kg, p.o.) [2]: 84%

Structure (SMILES): Cc1nnc2n1-c1ccc([N+](=O)[O-])cc1C(c1ccccc1)=NN2Cc1ccncc1 [Synthetic Example 102, 1-Methyl-8-nitro-6-phenyl-4-(pyridin-4-ymethyl)-4H-2,3,4,5,10b-pentaazabenz[e]azulene]
Inhibtion (%) of plasma IL-6 production (10 mg/kg, p.o.) [2]: 78%

Structure (SMILES): Cc1cc2c(s1)-n1c(C)nnc1N(Cc1ccncc1)N=C2c1ccccc1 [Synthetic Example 121, 2,9-Dimethyl-4-phenyl-6-(pyridin-4-ylmethyl)-6H-5,6,7,8,9a-pentaazathieno[2,3-e]azulene]
inhibition in vivo at 10 mg/kg [2]: 91%
